Measured values from publication PMC4210869, “Functional Phylogenetics Reveals Contributions of Pleiotropic Peptide Action to Ligand-Receptor Coevolution” (Scientific Reports, 2014).
Where two headings read alike, the source gives them in different places. Where no end group is shown, it is not given here.

Assays:
Assay type in all cases: cell-based
TcPKr-A = target: T1, TcPKr-A (Tribolium castaneum, UniProt A0ACM8QKC5); assay: Aequorin luminescence (calcium mobilization) assay, CHO cells transiently expressing TcPKr-A
T1 sequence (A0ACM8QKC5 1-530): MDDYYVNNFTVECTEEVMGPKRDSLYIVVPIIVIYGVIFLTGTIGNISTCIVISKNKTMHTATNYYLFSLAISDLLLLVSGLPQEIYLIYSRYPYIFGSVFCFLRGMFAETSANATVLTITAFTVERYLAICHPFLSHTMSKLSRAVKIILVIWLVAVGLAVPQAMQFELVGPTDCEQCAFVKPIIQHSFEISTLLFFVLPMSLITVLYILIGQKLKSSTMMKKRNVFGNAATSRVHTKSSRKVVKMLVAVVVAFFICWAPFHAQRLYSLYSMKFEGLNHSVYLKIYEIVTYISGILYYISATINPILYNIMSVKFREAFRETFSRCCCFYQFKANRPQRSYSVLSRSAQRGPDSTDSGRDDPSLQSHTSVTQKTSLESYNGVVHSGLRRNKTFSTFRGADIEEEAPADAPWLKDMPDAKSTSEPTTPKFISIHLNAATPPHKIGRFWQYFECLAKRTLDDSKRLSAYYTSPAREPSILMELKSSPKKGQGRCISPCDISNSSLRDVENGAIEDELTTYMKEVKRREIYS
Protocol: (§1) We characterized all PRXamide GPCRs through assays of 9 endogenous ligands. Ligand activities were quantified by detection of luminescence responses from CHO cells transiently transfected with GPCR (see Methods and Materials section for details). Dose-response curves were generated by logistic fitting of the log transformed ligand concentrations ranging from 0.01 nM to 10 μM (Fig. 3). All results, shown as averages, were replicated in three independent experiments (see Supplementary Data 1 for details).
(§2) T. castaneum was kept in a 30°C growth chamber under a 16 : 8 (L : D) photoperiod and fed on a diet of wheat flour and Brewer's yeast (10 : 1). Peptides from T. castaneum were synthesized by Genescript (Piscataway, NJ). For culture of Chinese Hamster Ovary cells (CHO), DMEM/F12 medium, fetal bovine serum (FBS), Fungizone and Penicillin/Streptomycin, and coelenterazine for aequorin functional assay were purchased from Gibco cell culture at Life Technologies^TM (Grand Island, NY). TransIT-LT1 Transfection Reagent (Mirus Bio LLC, Madison, WI) was used for transient transfections. […]
(§3) cDNAs for full GPCR ORFs were inserted into the expression vector pcDNA3.1(+) (Invitrogen) or pcDNA5/FRT (Invitrogen). Methods for expression in Chinese Hamster Ovary (CHO) cell supplemented with aequorin and G-α16 and the assays were performed as previously described. Briefly, cells were transfected using the TransIT-LT1 transfection reagent (Mirus Bio LLC). Thirty hours after the transfection, the cells were collected and preincubated with the coelenterazine (Invitrogen) prior to the functional assay. A serial dilution (10 folds) of the 9 endogenous ligands were applied to the cells. The luminescence caused by the intracellular calcium mobilization were measured in continuous 20 seconds in every half-second interval. […] Based on which, a dose response curve was generated for each receptor by logistic fitting in Origin 8.6 (OriginLab).

TcPKr-B = target: T2, TcPKr-B (Tribolium castaneum, UniProt A0A0A7H8P0); assay: Aequorin luminescence (calcium mobilization) assay, CHO cells transiently expressing TcPKr-B
T2 sequence (A0A0A7H8P0 1-560): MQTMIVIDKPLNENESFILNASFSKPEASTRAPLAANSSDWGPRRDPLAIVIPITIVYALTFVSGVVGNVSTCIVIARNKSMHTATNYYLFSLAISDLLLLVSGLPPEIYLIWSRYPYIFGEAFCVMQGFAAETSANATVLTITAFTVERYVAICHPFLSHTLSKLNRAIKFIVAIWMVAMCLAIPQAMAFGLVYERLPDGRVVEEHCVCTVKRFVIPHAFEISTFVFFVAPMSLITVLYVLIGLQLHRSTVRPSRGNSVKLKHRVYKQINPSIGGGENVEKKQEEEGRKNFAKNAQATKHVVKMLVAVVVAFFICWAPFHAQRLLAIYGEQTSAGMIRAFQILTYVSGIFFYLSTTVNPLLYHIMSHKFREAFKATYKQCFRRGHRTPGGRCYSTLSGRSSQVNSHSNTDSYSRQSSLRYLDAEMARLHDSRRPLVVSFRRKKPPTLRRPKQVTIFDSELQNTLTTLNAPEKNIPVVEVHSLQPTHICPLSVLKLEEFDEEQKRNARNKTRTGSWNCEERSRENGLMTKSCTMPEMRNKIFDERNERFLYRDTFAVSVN
Protocol: as §1, §2, §3

TcPKr-C = target: T3, TcPKr-C (Tribolium castaneum, UniProt A0ACM8QKC4); assay: Aequorin luminescence (calcium mobilization) assay, CHO cells transiently expressing TcPKr-C; settings: for Receptor activation, in words: text summary of dose-response data
T3 sequence (A0ACM8QKC4 1-483): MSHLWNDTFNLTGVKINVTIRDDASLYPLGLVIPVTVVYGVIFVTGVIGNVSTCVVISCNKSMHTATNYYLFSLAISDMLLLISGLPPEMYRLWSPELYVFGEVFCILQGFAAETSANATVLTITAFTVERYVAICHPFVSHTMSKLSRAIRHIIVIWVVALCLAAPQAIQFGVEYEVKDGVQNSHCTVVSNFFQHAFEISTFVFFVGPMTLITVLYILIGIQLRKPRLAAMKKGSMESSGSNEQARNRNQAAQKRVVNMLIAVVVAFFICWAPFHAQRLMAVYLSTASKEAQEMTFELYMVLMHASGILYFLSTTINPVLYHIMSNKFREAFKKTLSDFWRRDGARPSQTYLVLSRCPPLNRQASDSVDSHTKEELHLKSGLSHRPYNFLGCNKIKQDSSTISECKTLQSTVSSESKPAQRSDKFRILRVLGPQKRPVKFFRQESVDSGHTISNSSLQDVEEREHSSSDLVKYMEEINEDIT
Protocol: as §1, §2, §3

TcCAPAr = target: T4, TcCAPAr (Tribolium castaneum, UniProt A0A0A7H7W3); assay: Aequorin luminescence (calcium mobilization) assay, CHO cells transiently expressing TcCAPAr
T4 sequence (A0A0A7H7W3 1-418): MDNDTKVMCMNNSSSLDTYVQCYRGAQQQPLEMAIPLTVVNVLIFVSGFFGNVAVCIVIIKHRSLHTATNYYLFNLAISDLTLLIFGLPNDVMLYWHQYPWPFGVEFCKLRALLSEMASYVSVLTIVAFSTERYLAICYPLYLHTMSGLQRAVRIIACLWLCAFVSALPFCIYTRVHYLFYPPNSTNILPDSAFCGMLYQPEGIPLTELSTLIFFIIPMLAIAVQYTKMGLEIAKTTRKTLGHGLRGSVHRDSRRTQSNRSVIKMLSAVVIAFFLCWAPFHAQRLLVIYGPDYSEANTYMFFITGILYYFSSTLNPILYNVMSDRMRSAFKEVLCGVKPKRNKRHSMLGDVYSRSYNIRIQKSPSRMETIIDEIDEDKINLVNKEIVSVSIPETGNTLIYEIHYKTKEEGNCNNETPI
Protocol: as §1, §2, §3

[1] = Supplementary data 1, fitted value incl. extrapolations beyond 10 μM, unit inferred, nM by Fig. 3, read-out: EC50s
[2] = EC50 [nM], Fig. 3, CHO cells with aequorin and G-α16, logistic fit, ligand 0.01 nM to 10 μM, average of three independent experiments
[3] = EC50 (bound given in μM), Fig. 3, above highest tested concentration 10 μM

Substance	EC50 (TcPKr-A; [1])	EC50 (TcPKr-B; [1])	EC50 (TcPKr-C; [1])	EC50 (TcCAPAr; [2])	EC50 (TcCAPAr; [1])	EC50 (TcPKr-A; [3])	EC50 (TcPKr-B; [3])	EC50 (TcPKr-C; [3])	EC50 (TcCAPAr)	Receptor activation, in words (TcPKr-C)	EC50 (TcCAPAr; [3])
SPPFAPRL-NH2 [PK2/PBAN-2]	17.5 nM	3.2 nM	13 nM	1070 nM	6970 nM						
NKLASVYALTPSLRV-NH2 [CAPA-1]	30700 nM	338000 nM				> 10000 nM	> 10000 nM	> 10000 nM	3.7 nM		
TPHESSVPNERNDDSKETYFWFGPRL-NH2 [PK1/DH-2]	92.6 nM	65.8 nM	576 nM		1070 nM					activated by high concentrations	
HVVNFTPRL-NH2 [PK2/PBAN-1]	21 nM	11.9 nM	1.4 nM		16100 nM						> 10000 nM
RIGKMVSFPRI-NH2 [CAPA-2]	12800 nM	62500 nM			5.8 nM	> 10000 nM	> 10000 nM	> 10000 nM			
PGANSGGMWFGPRL-NH2 [PK1/DH-1]	6.2 nM	161 nM		6970 nM	1070 nM			> 10000 nM		not	
HSSPFSPRL-NH2 [PK2/PBAN-3]	7.7 nM	28.7 nM	1 nM		36600 nM						> 10000 nM
ENYVLKAAKNVPRI-NH2 [ETH-1]	9840 nM	120000 nM			150 nM		> 10000 nM	> 10000 nM			
FFMKASKSVPRI-NH2 [ETH-2]	6300 nM	21800 nM	502000 nM		88.8 nM		> 10000 nM	> 10000 nM			
